Test results as given in US12435059B2, “AMP-activated protein kinase inhibitors and methods of making and using the same” (The Regents of the University of Colorado, priority 2019, dated 2025).

Tests used:
[1] = target: 468 kinases (Homo sapiens, UniProt P19784); assay: biochemical; assay type: binding; conditions: CSNK2A2; read-out: % Inhibition @ 100 nM
[2] = target: 468 kinases (Homo sapiens, UniProt Q13470); assay: biochemical; assay type: binding; conditions: TNK1; read-out: % Inhibition @ 100 nM
[3] = target: 468 kinases (Homo sapiens, UniProt Q08345); assay: biochemical; assay type: binding; conditions: DDR1; read-out: % Inhibition @ 100 nM
[4] = target: FLT1 (Homo sapiens (Human), UniProt P17948); assay: Kinome binding analysis at 100 nM, FLT1; conditions: read-out: Percentage inhibition at 100 nM, FLT1
[5] = target: CSF1R-autoinhibited (Homo sapiens (Human), UniProt P07333); assay: Kinome binding analysis at 100 nM, CSF1R-autoinhibited; conditions: read-out: Percentage inhibition at 100 nM, CSF1R-autoinhibited
[6] = target: 468 kinases (Homo sapiens, UniProt Q8IY84); assay: biochemical; assay type: binding; conditions: NIMI; read-out: % Inhibition @ 100 nM
[7] = target: 468 kinases (Homo sapiens, UniProt Q8N752); assay: biochemical; assay type: binding; conditions: CSNK1A1L; read-out: % Inhibition @ 100 nM
[8] = target: 468 kinases (Homo sapiens, UniProt Q9Y6R4); assay: biochemical; assay type: binding; conditions: MAP3K4; read-out: % Inhibition @ 100 nM
[9] = target: 468 kinases (Homo sapiens, UniProt Q6P2M8); assay: biochemical; assay type: binding; conditions: CAMK1B; read-out: % Inhibition @ 100 nM
[10] = target: 468 kinases (Homo sapiens, UniProt Q13163); assay: biochemical; assay type: binding; conditions: MEK5; read-out: % Inhibition @ 100 nM
[11] = target: 468 kinases (Homo sapiens, UniProt Q9UEW8); assay: biochemical; assay type: binding; conditions: STK39; read-out: % Inhibition @ 100 nM
[12] = target: 468 kinases (Homo sapiens, UniProt Q13188); assay: biochemical; assay type: binding; conditions: MST2; read-out: % Inhibition @ 100 nM
[13] = target: 468 kinases (Homo sapiens, UniProt P31749); assay: biochemical; assay type: binding; conditions: AKT1; read-out: % Inhibition @ 100 nM
[14] = target: 468 kinases (Homo sapiens, UniProt Q16512); assay: biochemical; assay type: binding; conditions: PKN1; read-out: % Inhibition @ 100 nM

Compound	inhibition at 0.1 µM [1]	inhibition at 0.1 µM [2]	inhibition at 0.1 µM [3]	inhibition at 0.1 µM [4]	inhibition at 0.1 µM [5]	inhibition at 0.1 µM [6]	inhibition at 0.1 µM [7]	inhibition at 0.1 µM [8]	inhibition at 0.1 µM [9]	inhibition at 0.1 µM [10]	inhibition at 0.1 µM [11]	inhibition at 0.1 µM [12]	inhibition at 0.1 µM [13]	inhibition at 0.1 µM [14]
CCN(CC)CCNC(=O)c1c(C)[nH]c(/C=C2\C(=O)Nc3ccc(CCO)cc32)c1C [Compound No. 10, (Z)—N-(2-(Diethylamino)ethyl)-5-((5-(2-hydroxyethyl)-2-oxoindolin-3-ylidene)methyl)-2,4-dimethyl-1H-pyrrole-3-carboxamide]	0%	9%	0%	42%										
CCN(CC)CCNC(=O)c1c(C)[nH]c(/C=C2\C(=O)Nc3ccc(CCC(N)=O)cc32)c1C [Compound No. 16, (Z)-5-((5-(3-Amino-3-oxopropyl)-2-oxoindolin-3-ylidene)methyl)-N-(2-(diethylamino)ethyl)-2,4-dimethyl-1H-pyrrole-3-carboxamide]					14%	67%	6%	8%	30%	80%	12%	41%	0%	24%
